This is an account of results in publication PMC5086648, “Structural and Functional Elucidation of Peptide Ts11 Shows Evidence of a Novel Subfamily of Scorpion Venom Toxins” (Toxins, 2016).

Bridge positions count the residues as written; N and C are the ends. Peptide text beside a SMILES is read from it.

One series concerns Kv1.2 (rKV1.2). Nature of the series: TEVC electrophysiology, Kv1.2 in Xenopus oocytes. The series is classed as cell-based, rat. An excerpt: (§1) For the expression of the voltage gated potassium channels (rKV1.1, rKV1.2, hKV1.3, rKV1.4, rKV1.5, rKV1.6, Shaker IR, rKV2.1, hKV3.1, rKV4.2, hERG, KV10.1) and the voltage gated sodium channels (rNaV1.1, rNaV1.4, hNaV1.5, mNaV1.6 and DmNav1) in Xenopus oocytes, the linearized plasmids were transcribed using the T7 or SP6 mMESSAGE-mMACHINE transcription kit (Ambion, Waltham, MA, USA). The harvesting of stage V–VI oocytes from anaesthetized female X. laevis frog has been previously described. Oocytes were injected with 30–50 nL of cRNA at a concentration of 1 ng/nL using a micro-injector (Drummond Scientfic, Broomall, PA, USA). The oocytes were incubated in a solution containing (in mM): NaCl, 96; KCl, 2; CaCl2, 1.8; MgCl2, 2 and HEPES, 5 (pH 7.4), supplemented with 50 mg/L gentamycin sulfate.
(§2) Two-electrode voltage-clamp recordings were performed at room temperature (18–22 °C) using a Geneclamp 500 amplifier (Molecular Devices, Silicon Valley, CA, USA) controlled by a pClamp data acquisition system (Axon Instruments, Union City, CA, USA). Whole cell currents from oocytes were recorded 1–10 days after injection. Bath solution composition was ND96 (in mM): NaCl, 96; KCl, 2; CaCl2, 1.8; MgCl2, 2 and HEPES, 5 (pH 7.4) (in mM): NaCl, 2; KCl, 96; CaCl2, 1.8; MgCl2, 2 and HEPES, 5 (pH 7.4). […]

Another series addresses T1, Kv1.3 (hKV1.3) (Homo sapiens, UniProt P22001).
T1 construct: expressed in transfected cells; host or cells: Xenopus laevis oocytes injected with cRNA
Nature of the series: TEVC electrophysiology, Kv1.3 in Xenopus oocytes. The series is classed as cell-based.
Text: as §1
Two-electrode voltage-clamp recordings were performed at room temperature (18–22 °C) using a Geneclamp 500 amplifier (Molecular Devices, Silicon Valley, CA, USA) controlled by a pClamp data acquisition system (Axon Instruments, Union City, CA, USA). Whole cell currents from oocytes were recorded 1–10 days after injection. Bath solution composition was ND96 (in mM): NaCl, 96; KCl, 2; CaCl2, 1.8; MgCl2, 2 and HEPES, 5 (pH 7.4) (in mM): NaCl, 2; KCl, 96; CaCl2, 1.8; MgCl2, 2 and HEPES, 5 (pH 7.4). Voltage and current electrodes were filled with KCl 3 M. Resistances of both electrodes were kept between […]. The elicited currents were sampled at 1 kHz and filtered at 0.5 kHz (for potassium currents) or sampled at 20 kHz and filtered at 2 kHz (for sodium currents) using a four-pole low-pass Bessel filter. Leak subtraction was performed using a -P/4 protocol.
The KV1.1–KV1.6, KV2.1, KV3.1 and KV4.2 and Shaker IR currents were evoked by 250 ms depolarizations to 0 mV followed by a 250 ms pulse to −50 mV, from a holding potential of −90 mV. Current traces of hERG channels were elicited by applying a pulse from −90 mV to +40 mV for 2.5 s followed by a step to −120 mV for 2.5 s. The Kv 10.1 currents were evoked by 1 s depolarization to 0 mV, from a holding potential of −90 mV. Sodium current traces were evoked, from a holding potential of −90 mV, by 100 ms depolarization to 0 mV. In order to investigate the current-voltage relationship, current traces were evoked by 10 mV depolarization steps from a holding potential of −90 mV.
To assess the concentration-response relationship of Ts11 on Kv1.3, data were fitted with the Hill equation: y = 100/[1 + (IC50/[toxin])^h], where y is the amplitude of the toxin-induced effect, IC50 is the toxin concentration at half maximal efficacy, [toxin] is the toxin concentration and h is the Hill coefficient (Hill coefficient: 0.8). Current-voltage relationship was determined by 100 ms step depolarization between −90 and +70 mV, using 10 mV increments. All data represent at least 3 independent experiments (n = 3) and are presented as mean ± standard error.

A further series has as its system Kv4.2 (rKV4.2). Nature of the series: TEVC electrophysiology, Kv4.2 in Xenopus oocytes. The series is classed as cell-based, rat.
Text: as §1, §2

Another series deals with Kv10.1. Nature of the series: TEVC electrophysiology, Kv10.1 in Xenopus oocytes. Particulars: 3 μM, native toxin, two-electrode voltage-clamp, ND96 pH 7.4, 18–22 °C, 1 s depolarization to 0 mV from −90 mV, n ≥ 3. The series is classed as cell-based.
Text: as §1, §2

The next series deals with hERG. Nature of the series: TEVC electrophysiology, hERG in Xenopus oocytes. The class given is cell-based.
Text: as §1, §2
In general terms: hERG is a cardiac potassium channel; its block is linked to QT prolongation.

For another series, the system named is Shaker IR. Nature of the series: TEVC electrophysiology, Shaker IR in Xenopus oocytes. Particulars: 3 μM, native toxin, two-electrode voltage-clamp, ND96 pH 7.4, 18–22 °C, 250 ms depolarizations to 0 mV from −90 mV, n ≥ 3. The series is classed as cell-based.
Text: as §1, §2
(In two-electrode clamp one electrode senses voltage and the other passes current.)

The test system of the next series is Nav1.1 (rNaV1.1). Nature of the series: TEVC electrophysiology, Nav1.1 in Xenopus oocytes. The class given is cell-based, rat. Particulars: 1 μM, two-electrode voltage-clamp, 100 ms depolarization to 0 mV from −90 mV, number of cells ≥ 3.
Text: as §1, §2

Another series has as its system Nav1.4 (rNaV1.4). Nature of the series: TEVC electrophysiology, Nav1.4 in Xenopus oocytes. As to conditions: 1 μM, two-electrode voltage-clamp, 100 ms depolarization to 0 mV from −90 mV, number of cells ≥ 3. The series is classed as cell-based, rat.
Text: as §1, §2

For the next series, the system named is Nav1.5 (hNaV1.5). Nature of the series: TEVC electrophysiology, Nav1.5 in Xenopus oocytes. The series is classed as cell-based, human. Particulars: 1 μM, two-electrode voltage-clamp, 100 ms depolarization to 0 mV from −90 mV, number of cells ≥ 3.
Text: as §1, §2

The subject of a further series is Nav1.6 (mNaV1.6). Nature of the series: TEVC electrophysiology, Nav1.6 in Xenopus oocytes. The series is classed as cell-based, mouse. Particulars: 1 μM, two-electrode voltage-clamp, 100 ms depolarization to 0 mV from −90 mV, number of cells ≥ 3.
Text: as §1, §2

The next series has as its system DmNav1. Nature of the series: TEVC electrophysiology, DmNav1 in Xenopus oocytes. The series is classed as cell-based, insect. As to conditions: 1 μM, two-electrode voltage-clamp, 100 ms depolarization to 0 mV from −90 mV, number of cells ≥ 3.
Text: as §1, §2

The subject of the next series is Kv channels. Nature of the series: TEVC electrophysiology, Kv channel panel in Xenopus oocytes. The class given is cell-based. As to conditions: discussion, Kv channels overall.
Text: as §1, §2

The test system of the next series is Nav channels. Nature of the series: TEVC electrophysiology, Nav channel panel in Xenopus oocytes. The class given is cell-based. As to conditions: discussion; tested at 1 μM.
Text: as §1, §2

Where [1] appears, read: 3 μM, native toxin, two-electrode voltage-clamp, Xenopus oocytes, ND96 pH 7.4, 18–22 °C, 250 ms depolarizations to 0 mV from −90 mV, n ≥ 3.
[2] abbreviates: 5 μM, compared with 3 μM, data not shown.

T1 sequence (P22001 whole entry): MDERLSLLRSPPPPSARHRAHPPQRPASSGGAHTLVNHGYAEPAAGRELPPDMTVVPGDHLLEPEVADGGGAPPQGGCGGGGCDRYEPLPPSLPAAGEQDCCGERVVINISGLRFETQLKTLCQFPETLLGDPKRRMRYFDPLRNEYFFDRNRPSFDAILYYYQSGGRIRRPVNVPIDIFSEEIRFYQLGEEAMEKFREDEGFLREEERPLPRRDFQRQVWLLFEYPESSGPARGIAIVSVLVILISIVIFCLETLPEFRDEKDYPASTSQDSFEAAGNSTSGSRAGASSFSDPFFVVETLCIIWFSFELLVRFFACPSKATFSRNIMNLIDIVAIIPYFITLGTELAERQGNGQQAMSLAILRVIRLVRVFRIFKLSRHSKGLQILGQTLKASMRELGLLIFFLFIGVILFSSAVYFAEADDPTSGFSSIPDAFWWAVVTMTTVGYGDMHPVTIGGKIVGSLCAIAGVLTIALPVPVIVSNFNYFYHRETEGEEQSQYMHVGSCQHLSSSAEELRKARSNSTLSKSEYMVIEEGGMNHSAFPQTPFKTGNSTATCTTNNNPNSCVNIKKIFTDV

On to `CC(C)C[C@@H]1NC(=O)CNC(=O)[C@@H](NC(=O)[C@H](CCCCN)NC(=O)[C@@H]2CCCN2C(=O)[C@@H](N)CCCCN)CSSC[C@@H]2NC(=O)[C@@H]3CSSC[C@@H]4NC(=O)[C@H](CCCCN)NC(=O)CNC(=O)[C@H](CO)NC(=O)[C@H](CO)NC(=O)[C@H](CSSC[C@H](NC(=O)[C@H](C)NC(=O)CNC(=O)[C@H](CC(N)=O)NC(=O)[C@H](C(C)C)NC4=O)C(=O)N[C@@H](CC(=O)O)C(=O)N[C@H](C(=O)N[C@@H](CO)C(=O)O)CSSC[C@H](NC1=O)C(=O)N[C@@H](CCCNC(=N)N)C(=O)N[C@@H](Cc1ccc(O)cc1)C(=O)N[C@@H](CCCNC(=N)N)C(=O)N3)NC(=O)CNC(=O)CNC(=O)[C@H](CO)NC2=O` [Ts11] (H-KPKCGLCRYRCCSGGCSSGKCVNGACDCS-OH; disulfide 4-12, 7-28, 11-21, 16-26; N-terminus and C-terminus assumed), for which the “blocking effect on Kv1.2” value with Kv1.2 (rKV1.2) (setting [1]) was 25%. Also, the “increase in blockage at higher concentration, Kv1.2” value in the series on Kv1.2 (rKV1.2) (setting [2]) is “no significant increase in blockage”. At Kv1.3 (hKV1.3) (setting [1]), the “blocking effect on Kv1.3” value is recorded as 27%. Further, the “alteration of channel activation properties (Kv1.3)” value at Kv1.3 (hKV1.3) (5 μM, V1/2 with toxin vs control) is “No significant alteration of properties of channel activation”. Moreover, the “Hill coefficient, Kv1.3” value on Kv1.3 (hKV1.3) (concentration-response fit, Hill equation, n ≥ 3) is listed as 0.8. Further, the IC50 on Kv1.3 (hKV1.3) (concentration-response, Hill equation fit, two-electrode voltage-clamp, Xenopus oocytes, pH 7.4, 18–22 °C, mean ± standard error, n ≥ 3, read-out: IC50, inhibition of Kv1.3 currents) amounted to 17.1 ± 3.3 µM. Also, the “V1/2 of Kv1.3 activation” value on Kv1.3 (hKV1.3) (toxin condition, 5 μM (Figure 3B), normalized peak Itail, control 17.3 ± 0.6 mV, n ≥ 3, mean ± standard error) stood at 17.6 ± 0.7 mV. The “blocking effect on Kv4.2” value in the series on Kv4.2 (rKV4.2) (setting [1]) is reported as 25%. For the same compound, the “increase in blockage at higher concentration, Kv4.2” value in the series on Kv4.2 (rKV4.2) (setting [2]) is “no significant increase in blockage”. The “blocking effect on Kv10.1” value in the series with Kv10.1 came out at 15%. Moreover, the “blocking effect on hERG” value in the series on hERG (3 μM, native toxin, two-electrode voltage-clamp, Xenopus oocytes, pH 7.4, 18–22 °C, pulse −90 mV to +40 mV for 2.5 s, step to −120 mV for 2.5 s, n ≥ 3) stood at 12%. In the series with hERG (10 μM, compared with 3 μM, data not shown), the “increase in blockage at higher concentration, hERG” value is recorded as “no significant increase in blockage”. In addition, the “blocking effect on Shaker IR” value with Shaker IR came to 10%. In addition, the “activity on Nav1.1” value with Nav1.1 (rNaV1.1) is “inactive”. Also, the “activity on Nav1.4” value in the series on Nav1.4 (rNaV1.4) was “inactive”. For the same compound, the “activity on Nav1.5” value in the series with Nav1.5 (hNaV1.5) was “inactive”. The “activity on Nav1.6” value in the series on Nav1.6 (mNaV1.6) was “inactive”. In the series with DmNav1, the “activity on insect channel DmNav1” value is “inactive”. In the series with Kv channels, the “effect on kinetics of Kv channel gating” value is recorded as “without altering the kinetics of channel gating” and the “potency as Kv channel blocker (in words)” value is “not a potent blocker of Kv channels”. For the same compound, the “activity on Nav channels overall (in words)” value in the series on Nav channels is given as “does not target Nav channels”.

The term IC50 denotes the point on the concentration scale where inhibition reaches its midpoint.
